Results from ChEMBL document CHEMBL1221282, “The action of bromoconduritol on ER glucosidase II” (Bioorg Med Chem Lett, 2010).

What was measured:
[1] = Inhibition of rat liver glucosidase 2 assessed as inhibition of conversion of G2M9 to G1M9
[2] = Inhibition of rat liver glucosidase 2 assessed as inhibition of conversion of G1M9 to M9
[3] = species on record: Rattus norvegicus; assay: Inhibition of rat liver glucosidase 2 assessed as inhibition of consumption at 100 uM after 24 hrs
[4] = species on record: Rattus norvegicus; assay: Inhibition of rat liver glucosidase 2 assessed as inhibition of consumption at 100 uM after 1 hr
[5] = species on record: Rattus norvegicus; assay: Inhibition of rat liver glucosidase 2 assessed as inhibition of consumption at 100 uM after 20 mins

IC50 [1] [µM] | IC50 [2] [µM] | inhibition [3] [%] | inhibition [4] [%] | inhibition [5] [%] | Structure (SMILES)
8.2 | 11.2 |  |  |  | OC[C@H]1NC[C@H](O)[C@@H](O)[C@@H]1O [DUVOGLUSTAT]
262 | 41 | < 10 | 20 | 36 | O[C@H]1[C@H](O)C=CC(Br)[C@@H]1O (some centres undefined) [BROMOCONDURITOL]

Structure (SMILES) | IC50 [1] [µM] | IC50 [2] [µM] | inhibition [3] [%] | inhibition [4] [%] | inhibition [5] [%]
O[C@H]1[C@H](O)[C@@H](O)CN2CC[C@H](O)[C@H]12 [CASTANOSPERMINE] | 1.3 | 1.1 |  |  | 
